Test results as given in patent US10508086B2 (CANCER RESEARCH TECHNOLOGY LIMITED, priority 2014, dated 2019).

Columns and labels:
Human Full Length PARG = Human Full Length PARG (Homo sapiens (Human), UniProt Q86W56); experiment: PARG in vitro enzyme assay (TR-FRET); assay type: biochemical; conditions: read-out: PARG_EC50_ENZYME
Summary of the method: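 Full-length human PARG ([…]) incubated with ribosylated PARP substrate (4.5 nM) for 10 min at room temperature in Tris pH 7.4 buffer with EDTA, EGTA, DTT, KCl. Detection by TR-FRET using anti-6HIS XL665 (14 nM final) and streptavidin europium cryptate (0.75 nM final) after 60 min; Em665/Em620 ratio converted to percent inhibition.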

PARG in HeLa cell line = PARG in HeLa cell line (Homo sapiens (Human), UniProt Q86W56); experiment: PARG cell assay (nuclear PAR chains after MMS, immunofluorescence); assay type: cell-based; conditions: HeLa cells, MMS 50 μg/mL; read-out: PARG Cell IC50 Geomean
Description: This method is based on the detection of endogenous levels of poly (ADP) ribose chains present in the nucleus of HeLa cell line using indirect immunofluorescence. MMS stimulation increases PAR chains for up to 25 mins. After that point, PARG is active and breaks down the PAR chains, until by one hour after stimulation no PAR chains are detectable. Inhibition of PARG maintains PAR chains.
Briefly, following compound treatment and treatment with the DNA damaging agent methylmethanesulfonate (MMS), the cell monolayer is fixed, then permeabilised and incubated with a mouse monoclonal antibody raised against multimers of poly(ADP) ribose. After an overnight incubation, excess antibody is removed by washing and an Alexafluor 488-linked secondary antibody which recognises the mouse monoclonal is added together with a nuclear stain (Hoechst 33342). Images of the cells are then captured and analysed on a High Content Screening platform and the total intensity of the nuclear fluorescent signal at […] is quantified.
HeLa cells, seeded in 384-well plates, at 4000/well in 30 μL RPMI 1640 media, supplemented with 10% FBS and 2 mM Glutamax, were incubated overnight at 37° C., 5% CO2.
The following day, cells were dosed in quadruplicate with compound (10 point dose response) and incubated for 1 h at 37° C., 5% CO2.
At the end of the 1 h dosing period, MMS was added to duplicates at a final concentration of 50 μg/mL, for a further hour.
Media was tipped off and the cells fixed with 50 μL ice-cold 95% MetOH/PBS for 15 mins at −20° C. Following a PBS wash, 50 μL PBS/0.1% Triton was added to the cells for 20 mins. Following another PBS wash, anti-PAR antibody (Calbiochem AM80) was diluted 1:4000 in a buffer (PBS+0.5% FBS+0.05% Tween20) and added to the cells and incubated overnight at 4° C.
The following day, cells were washed three times with PBS and then incubated for 1 hr with secondary antibody (Alexa Fluor® 488 goat anti mouse IgG (H+L)) diluted 1:1000 and Hoechst diluted 1:5000 in buffer (5% FBS in PBS+0.05% Tween20).
Cells were washed three times with PBS and the plate sealed with a light-proof seal.
Images of the cells were captured on a ThermoFisher Celllnsight and the mean total intensity of spots fluorescent at 485 nm in the nucleus was reported.

PARG in HeLa cell line, sequence (Q86W56 whole entry): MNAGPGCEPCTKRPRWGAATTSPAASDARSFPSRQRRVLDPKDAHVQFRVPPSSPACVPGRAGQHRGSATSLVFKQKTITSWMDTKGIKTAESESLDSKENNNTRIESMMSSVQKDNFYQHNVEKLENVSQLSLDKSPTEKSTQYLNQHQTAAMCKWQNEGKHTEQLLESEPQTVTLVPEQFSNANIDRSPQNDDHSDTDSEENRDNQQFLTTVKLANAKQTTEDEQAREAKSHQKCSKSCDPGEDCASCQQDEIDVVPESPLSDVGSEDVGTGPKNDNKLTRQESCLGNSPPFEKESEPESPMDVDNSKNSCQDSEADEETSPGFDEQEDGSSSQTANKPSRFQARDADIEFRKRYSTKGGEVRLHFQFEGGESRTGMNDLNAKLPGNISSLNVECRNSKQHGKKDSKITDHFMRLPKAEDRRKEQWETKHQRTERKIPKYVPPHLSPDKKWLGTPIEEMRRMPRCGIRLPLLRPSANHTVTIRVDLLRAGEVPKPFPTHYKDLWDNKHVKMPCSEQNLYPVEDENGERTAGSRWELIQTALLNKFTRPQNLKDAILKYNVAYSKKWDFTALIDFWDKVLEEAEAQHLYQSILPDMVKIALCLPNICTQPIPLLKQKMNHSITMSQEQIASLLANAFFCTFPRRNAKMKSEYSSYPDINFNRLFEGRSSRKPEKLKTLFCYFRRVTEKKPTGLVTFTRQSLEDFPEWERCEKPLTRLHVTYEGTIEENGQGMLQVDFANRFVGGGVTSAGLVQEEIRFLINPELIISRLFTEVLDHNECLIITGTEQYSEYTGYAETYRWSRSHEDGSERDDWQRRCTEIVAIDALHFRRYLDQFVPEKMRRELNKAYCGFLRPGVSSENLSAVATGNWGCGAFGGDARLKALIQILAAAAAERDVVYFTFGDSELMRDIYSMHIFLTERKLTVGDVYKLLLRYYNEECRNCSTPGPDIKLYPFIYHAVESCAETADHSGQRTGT
Human Full Length PARG, sequence (Q86W56 whole entry): as above

Compound | EC50 (Human Full Length PARG) [nM] | IC50 (PARG in HeLa cell line) [nM]
Cc1nsc(-n2c(=O)n(CCN(C)C)c3ccc(S(=O)(=O)NC4(CF)CC4)cc32)n1 [Example 186, 1-[2-(Dimethylamino)ethyl]-N-[1-(fluoromethyl)cyclopropyl]-3-(3-methyl-1,2,4-thiadiazol-5-yl)-2-oxo-benzimidazole-5-sulfonamide] | 4230 | 3120
COCCCn1c(=O)n(-c2nnc(C)s2)c2cc(S(=O)(=O)NC3(CF)CC3)ccc21 [Example 187, N-[1-(Fluoromethyl)cyclopropyl]-1-(3-methoxypropyl)-3-(5-methyl-1,3,4-thiadiazol-2-yl)-2-oxo-benzimidazole-5-sulfonamide] | 427 | 201
Cc1nnc(-n2c(=O)n(CCN(C)C)c3ccc(S(=O)(=O)NC4(CF)CC4)cc32)s1 [Example 188, 1-[2-(Dimethylamino)ethyl]-N-[1-(fluoromethyl)cyclopropyl]-3-(5-methyl-1,3,4-thiadiazol-2-yl)-2-oxo-benzimidazole-5-sulfonamide] | 610 | 347
Cc1nnc(-n2c(=O)n(C)c3ccc(S(=O)(=O)NC4(C)CC4)cc32)o1 [Example 189, 1-Methyl-N-(1-methylcyclopropyl)-3-(5-methyl-1,3,4-oxadiazol-2-yl)-2-oxo-benzimidazole-5-sulfonamide] | 1790 | 1230
C#CCn1c(=O)n(-c2nnc(C(F)F)s2)c2cc(S(=O)(=O)NC3(CF)CC3)ccc21 [Example 193, 3-[5-(Difluoromethyl)-1,3,4-thiadiazol-2-yl]-N-[1-(fluoromethyl)cyclopropyl]-2-oxo-1-prop-2-ynyl-benzimidazole-5-sulfonamide] | 153 | 40
Cc1nnc(-n2c(=O)[nH]c3cc(F)c(S(=O)(=O)NC4(CF)CC4)cc32)o1 [Example 194, 6-Fluoro-N-[1-(fluoromethyl)cyclopropyl]-3-(5-methyl-1,3,4-oxadiazol-2-yl)-2-oxo-1H-benzimidazole-5-sulfonamide] | 1240 | > 30000
Cn1c(=O)n(-c2nnc(C(F)F)o2)c2cc(S(=O)(=O)NC3(C)CC3)ccc21 [Example 195, 3-[5-(Difluoromethyl)-1,3,4-oxadiazol-2-yl]-1-methyl-N-(1-methylcyclopropyl)-2-oxo-benzimidazole-5-sulfonamide] | 1010 | 457
Cn1c(=O)n(-c2nnc(C(F)F)o2)c2cc(S(=O)(=O)NC3(CF)CC3)ccc21 [Example 196, 3-[5-(Difluoromethyl)-1,3,4-oxadiazol-2-yl]-N-[1-(fluoromethyl)cyclopropyl]-1-methyl-2-oxo-benzimidazole-5-sulfonamide] | 789 | 469
CCn1c(=O)n(-c2nnc(C(F)F)o2)c2cc(S(=O)(=O)NC3(C)CC3)ccc21 [Example 201, 3-[5-(Difluoromethyl)-1,3,4-oxadiazol-2-yl]-1-ethyl-N-(1-methylcyclopropyl)-2-oxo-benzimidazole-5-sulfonamide] | 759 | 189
CCn1c(=O)n(-c2nnc(C(F)F)o2)c2cc(S(=O)(=O)NC3(CF)CC3)ccc21 [Example 202, 3-[5-(Difluoromethyl)-1,3,4-oxadiazol-2-yl]-1-ethyl-N-[1-(fluoromethyl)cyclopropyl]-2-oxo-benzimidazole-5-sulfonamide] | 421 | 240
COCCn1c(=O)n(-c2ccc(C)nn2)c2cc(S(=O)(=O)NC3(CF)CC3)c(F)cc21 [Example 203, 6-Fluoro-N-[1-(fluoromethyl)cyclopropyl]-1-(2-methoxyethyl)-3-(6-methylpyridazin-3-yl)-2-oxo-benzimidazole-5-sulfonamide] | 4830 | 3700
Cc1ccc(-n2c(=O)n(C)c3cc(F)c(S(=O)(=O)NC4(CF)CC4)cc32)nn1 [Example 204, 6-Fluoro-N-[1-(fluoromethyl)cyclopropyl]-1-methyl-3-(6-methylpyridazin-3-yl)-2-oxo-benzimidazole-5-sulfonamide] | 6190 | 4230
Cc1ccc(-n2c(=O)n(C)c3cc(F)c(S(=O)(=O)NC4(C)CC4)cc32)nn1 [Example 205, 6-Fluoro-1-methyl-N-(1-methylcyclopropyl)-3-(6-methylpyridazin-3-yl)-2-oxo-benzimidazole-5-sulfonamide] | 6690 | 5760
Cn1c(=O)n(-c2ccc(C(F)(F)F)nn2)c2cc(S(=O)(=O)NC3(CF)CC3)c(F)cc21 [Example 206, 6-Fluoro-N-[1-(fluoromethyl)cyclopropyl]-1-methyl-2-oxo-3-[6-(trifluoromethyl)pyridazin-3-yl]benzimidazole-5-sulfonamide] | 3970 | 970
CCn1c(=O)n(-c2nnc(C(F)F)s2)c2cc(S(=O)(=O)NC3(C)CC3)c(F)cc21 [Example 207, 3-[5-(Difluoromethyl)-1,3,4-thiadiazol-2-yl]-1-ethyl-6-fluoro-N-(1-methylcyclopropyl)-2-oxo-benzimidazole-5-sulfonamide] | 133 | 24

Second part, the compound after the results:

EC50 (Human Full Length PARG) [nM] | IC50 (PARG in HeLa cell line) [nM] | Compound
934 | 404 | CCn1c(=O)n(-c2nnc(C)o2)c2cc(S(=O)(=O)NC3(C)CC3)ccc21 [Example 190, 1-Ethyl-N-(1-methylcyclopropyl)-3-(5-methyl-1,3,4-oxadiazol-2-yl)-2-oxo-benzimidazole-5-sulfonamide]
967 | 807 | Cc1nnc(-n2c(=O)n(CCF)c3ccc(S(=O)(=O)NC4(C)CC4)cc32)o1 [Example 191, 1-(2-Fluoroethyl)-N-(1-methylcyclopropyl)-3-(5-methyl-1,3,4-oxadiazol-2-yl)-2-oxo-benzimidazole-5-sulfonamide]
1460 | 11700 | Cc1nnc(-n2c(=O)[nH]c3cc(F)c(S(=O)(=O)NC4(C)CC4)cc32)o1 [Example 192, 6-Fluoro-N-(1-methylcyclopropyl)-3-(5-methyl-1,3,4-oxadiazol-2-yl)-2-oxo-1H-benzimidazole-5-sulfonamide]
759 | 538 | Cc1nnc(-n2c(=O)n(C)c3cc(F)c(S(=O)(=O)NC4(C)CC4)cc32)o1 [Example 197, 6-Fluoro-1-methyl-N-(1-methylcyclopropyl)-3-(5-methyl-1,3,4-oxadiazol-2-yl)-2-oxo-benzimidazole-5-sulfonamide]
419 | 297 | Cc1nnc(-n2c(=O)n(CCF)c3cc(F)c(S(=O)(=O)NC4(C)CC4)cc32)o1 [Example 198, 6-Fluoro-1-(2-fluoroethyl)-N-(1-methylcyclopropyl)-3-(5-methyl-1,3,4-oxadiazol-2-yl)-2-oxo-benzimidazole-5-sulfonamide]
314 | 145 | CCn1c(=O)n(-c2nnc(C(F)F)o2)c2cc(S(=O)(=O)NC3(C)CC3)c(F)cc21 [Example 199, 3-[5-(Difluoromethyl)-1,3,4-oxadiazol-2-yl]-1-ethyl-6-fluoro-N-(1-methylcyclopropyl)-2-oxo-benzimidazole-5-sulfonamide]
930 | 219 | Cn1c(=O)n(-c2nnc(C(F)F)o2)c2cc(S(=O)(=O)NC3(C)CC3)c(F)cc21 [Example 209, 3-[5-(Difluoromethyl)-1,3,4-oxadiazol-2-yl]-6-fluoro-1-methyl-N-(1-methylcyclopropyl)-2-oxo-benzimidazole-5-sulfonamide]
